# Test results as given in patent US12240816B2, “Deuterated compounds and uses thereof” (Aldeyra Therapeutics, Inc., priority 2015, dated 2025).
# Experiments:
# Assay in all cases: biochemical
# Format in all cases: biochemical
# [1] = biological target: enzyme and uptake assay panel targets (Table 36) (Homo sapiens, UniProt P56817); details: BACE-1 (h) (β-secretase); 1.0E−05M; flag INTER: Test compound interferes with the assay detection method
# [2] = biological target: enzyme and uptake assay panel targets (Table 36) (Homo sapiens, UniProt Q9BYF1); details: ACE-2 (h); 1.0E−05M; flag INTER: Test compound interferes with the assay detection method
# [3] = biological target: enzyme and uptake assay panel targets (Table 36) (Homo sapiens, UniProt P08473); details: Peptidase, Metalloproteinase, Neutral Endopeptidase; 1.0E−05M
# [4] = biological target: enzyme and uptake assay panel targets (Table 36) (Homo sapiens, UniProt P06241); details: Fyn kinase (h); 1.0E−05M
# [5] = biological target: enzyme and uptake assay panel targets (Table 36) (Homo sapiens, UniProt P24941); details: CDK2 (h) (cycA); 1.0E−05M
# [6] = biological target: enzyme and uptake assay panel targets (Table 36) (Mus musculus, UniProt P29477); details: inducible NOS; 1.0E−05M
# [7] = biological target: enzyme and uptake assay panel targets (Table 36) (Human immunodeficiency virus type 1 group M subtype B, UniProt P04585); details: HIV-1 protease; 1.0E−05M
# [8] = biological target: enzyme and uptake assay panel targets (Table 36) (Homo sapiens, UniProt P27338); details: MAO-B (h) recombinant enzyme; 1.0E−05M
# [9] = biological target: enzyme and uptake assay panel targets (Table 36) (Homo sapiens, UniProt O00408); details: PDE2A1 (h); 1.0E−05M
# [10] = biological target: enzyme and uptake assay panel targets (Table 36) (Homo sapiens, UniProt P14780); details: MMP-9 (h); 1.0E−05M; flag INTER: Test compound interferes with the assay detection method
# [11] = biological target: enzyme and uptake assay panel targets (Table 36) (Homo sapiens, UniProt P42574); details: caspase-3 (h); 1.0E−05M
# [12] = biological target: enzyme and uptake assay panel targets (Table 36) (Homo sapiens, UniProt Q08499); details: PDE4D2 (h); 1.0E−05M
# [13] = biological target: enzyme and uptake assay panel targets (Table 36) (Homo sapiens, UniProt Q13370); details: PDE3B (h); 1.0E−05M
# [14] = biological target: enzyme and uptake assay panel targets (Table 36) (Homo sapiens, UniProt P17948); details: FLT-1 kinase (h) (VEGFR1); 1.0E−05M
# [15] = biological target: enzyme and uptake assay panel targets (Table 36) (Homo sapiens, UniProt P07948); details: Lyn A kinase (h); 1.0E−05M
# [16] = system: enzyme and uptake assay panel targets (Table 36); details: COMT (catechol-O-methyl transferase); 1.0E−05M; flag INTER: Test compound interferes with the assay detection method
# [17] = biological target: enzyme and uptake assay panel targets (Table 36) (Homo sapiens, UniProt P06213); details: IRK (h)(InsR); 1.0E−05M
# [18] = biological target: enzyme and uptake assay panel targets (Table 36) (Homo sapiens, UniProt P12821); details: ACE (h); 1.0E−05M; flag INTER: Test compound interferes with the assay detection method
# Chain of enzyme and uptake assay panel targets (Table 36) (Homo sapiens, UniProt P12821) (P12821 30-1306): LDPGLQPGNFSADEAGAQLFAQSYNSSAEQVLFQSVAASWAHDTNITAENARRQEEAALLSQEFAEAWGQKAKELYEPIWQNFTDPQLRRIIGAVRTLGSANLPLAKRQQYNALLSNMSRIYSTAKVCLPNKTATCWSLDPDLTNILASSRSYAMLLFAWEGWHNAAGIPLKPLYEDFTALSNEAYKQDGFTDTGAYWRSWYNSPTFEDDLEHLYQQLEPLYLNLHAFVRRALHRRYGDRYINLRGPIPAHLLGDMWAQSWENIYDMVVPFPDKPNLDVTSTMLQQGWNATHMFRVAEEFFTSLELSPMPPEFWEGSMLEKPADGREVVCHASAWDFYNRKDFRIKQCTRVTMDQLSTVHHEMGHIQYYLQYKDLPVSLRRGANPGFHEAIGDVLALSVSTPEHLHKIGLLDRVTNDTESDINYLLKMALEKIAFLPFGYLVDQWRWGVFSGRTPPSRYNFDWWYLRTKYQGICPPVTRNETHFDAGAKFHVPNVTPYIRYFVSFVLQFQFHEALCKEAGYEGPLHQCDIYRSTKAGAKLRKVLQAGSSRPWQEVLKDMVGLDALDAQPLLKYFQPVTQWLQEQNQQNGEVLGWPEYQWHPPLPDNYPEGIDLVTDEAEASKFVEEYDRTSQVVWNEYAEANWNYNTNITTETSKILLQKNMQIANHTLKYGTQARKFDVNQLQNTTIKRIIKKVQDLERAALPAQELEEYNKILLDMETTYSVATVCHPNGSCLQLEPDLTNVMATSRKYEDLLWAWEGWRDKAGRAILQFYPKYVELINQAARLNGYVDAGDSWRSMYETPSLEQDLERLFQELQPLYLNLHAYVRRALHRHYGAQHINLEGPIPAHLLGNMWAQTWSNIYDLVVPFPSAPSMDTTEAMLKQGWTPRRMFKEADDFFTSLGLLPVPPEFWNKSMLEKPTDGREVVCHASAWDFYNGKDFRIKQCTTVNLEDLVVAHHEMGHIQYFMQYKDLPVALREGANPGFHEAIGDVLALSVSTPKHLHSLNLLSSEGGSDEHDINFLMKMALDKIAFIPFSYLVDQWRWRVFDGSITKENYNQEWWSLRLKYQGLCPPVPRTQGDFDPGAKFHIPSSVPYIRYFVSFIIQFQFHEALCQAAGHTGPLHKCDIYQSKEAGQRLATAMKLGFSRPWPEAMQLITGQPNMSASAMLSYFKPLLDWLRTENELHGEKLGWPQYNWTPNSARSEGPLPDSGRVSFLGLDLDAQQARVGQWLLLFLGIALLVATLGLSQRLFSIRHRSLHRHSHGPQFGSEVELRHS
# Chain of enzyme and uptake assay panel targets (Table 36) (Homo sapiens, UniProt P56817) (P56817 46-501): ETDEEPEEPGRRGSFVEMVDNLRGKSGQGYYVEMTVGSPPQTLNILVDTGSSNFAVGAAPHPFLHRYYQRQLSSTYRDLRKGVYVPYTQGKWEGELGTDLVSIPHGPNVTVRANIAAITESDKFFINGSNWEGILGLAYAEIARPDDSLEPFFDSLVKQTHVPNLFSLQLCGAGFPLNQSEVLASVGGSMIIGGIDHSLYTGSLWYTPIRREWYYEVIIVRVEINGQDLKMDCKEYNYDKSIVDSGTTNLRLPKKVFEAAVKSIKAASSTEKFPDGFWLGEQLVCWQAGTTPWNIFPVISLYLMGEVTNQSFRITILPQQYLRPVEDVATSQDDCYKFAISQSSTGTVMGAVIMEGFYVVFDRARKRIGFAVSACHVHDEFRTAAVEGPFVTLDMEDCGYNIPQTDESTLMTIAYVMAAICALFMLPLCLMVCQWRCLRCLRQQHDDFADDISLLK
# Chain of enzyme and uptake assay panel targets (Table 36) (Homo sapiens, UniProt P06213) (P06213 28-1382): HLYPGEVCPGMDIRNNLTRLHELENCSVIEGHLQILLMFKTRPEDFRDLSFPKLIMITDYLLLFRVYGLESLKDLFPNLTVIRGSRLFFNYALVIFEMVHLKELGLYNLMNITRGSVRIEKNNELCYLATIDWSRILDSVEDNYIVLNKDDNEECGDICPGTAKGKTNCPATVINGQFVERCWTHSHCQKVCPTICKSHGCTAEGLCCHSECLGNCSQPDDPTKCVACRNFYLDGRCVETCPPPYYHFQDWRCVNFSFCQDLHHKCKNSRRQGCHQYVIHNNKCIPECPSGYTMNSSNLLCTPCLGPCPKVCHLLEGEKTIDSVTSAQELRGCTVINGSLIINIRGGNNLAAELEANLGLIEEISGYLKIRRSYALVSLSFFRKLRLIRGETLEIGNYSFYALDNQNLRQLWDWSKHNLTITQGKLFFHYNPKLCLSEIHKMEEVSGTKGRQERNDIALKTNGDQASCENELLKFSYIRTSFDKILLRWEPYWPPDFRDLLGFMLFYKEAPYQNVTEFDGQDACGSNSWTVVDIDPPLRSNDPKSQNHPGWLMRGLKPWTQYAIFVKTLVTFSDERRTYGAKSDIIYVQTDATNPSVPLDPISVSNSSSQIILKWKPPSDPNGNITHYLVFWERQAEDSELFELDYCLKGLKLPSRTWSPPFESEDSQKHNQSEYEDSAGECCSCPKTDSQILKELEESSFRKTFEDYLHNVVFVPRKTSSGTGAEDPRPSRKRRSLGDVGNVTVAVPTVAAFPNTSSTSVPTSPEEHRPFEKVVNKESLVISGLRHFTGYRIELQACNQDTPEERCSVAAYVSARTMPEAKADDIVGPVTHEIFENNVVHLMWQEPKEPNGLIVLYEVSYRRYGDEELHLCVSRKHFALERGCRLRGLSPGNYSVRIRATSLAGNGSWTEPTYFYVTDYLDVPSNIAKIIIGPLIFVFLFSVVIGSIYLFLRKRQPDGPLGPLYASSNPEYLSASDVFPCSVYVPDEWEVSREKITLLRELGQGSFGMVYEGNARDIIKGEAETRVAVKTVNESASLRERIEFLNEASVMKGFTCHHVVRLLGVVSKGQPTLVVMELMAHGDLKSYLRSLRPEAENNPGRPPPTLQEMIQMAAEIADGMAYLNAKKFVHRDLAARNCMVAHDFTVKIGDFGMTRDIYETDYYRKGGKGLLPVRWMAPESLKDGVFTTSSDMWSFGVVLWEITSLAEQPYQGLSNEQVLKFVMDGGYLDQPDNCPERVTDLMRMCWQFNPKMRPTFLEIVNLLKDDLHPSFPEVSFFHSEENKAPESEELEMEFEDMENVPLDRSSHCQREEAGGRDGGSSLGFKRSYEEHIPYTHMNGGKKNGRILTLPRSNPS
# Chain of enzyme and uptake assay panel targets (Table 36) (Homo sapiens, UniProt P17948) (P17948 27-1338): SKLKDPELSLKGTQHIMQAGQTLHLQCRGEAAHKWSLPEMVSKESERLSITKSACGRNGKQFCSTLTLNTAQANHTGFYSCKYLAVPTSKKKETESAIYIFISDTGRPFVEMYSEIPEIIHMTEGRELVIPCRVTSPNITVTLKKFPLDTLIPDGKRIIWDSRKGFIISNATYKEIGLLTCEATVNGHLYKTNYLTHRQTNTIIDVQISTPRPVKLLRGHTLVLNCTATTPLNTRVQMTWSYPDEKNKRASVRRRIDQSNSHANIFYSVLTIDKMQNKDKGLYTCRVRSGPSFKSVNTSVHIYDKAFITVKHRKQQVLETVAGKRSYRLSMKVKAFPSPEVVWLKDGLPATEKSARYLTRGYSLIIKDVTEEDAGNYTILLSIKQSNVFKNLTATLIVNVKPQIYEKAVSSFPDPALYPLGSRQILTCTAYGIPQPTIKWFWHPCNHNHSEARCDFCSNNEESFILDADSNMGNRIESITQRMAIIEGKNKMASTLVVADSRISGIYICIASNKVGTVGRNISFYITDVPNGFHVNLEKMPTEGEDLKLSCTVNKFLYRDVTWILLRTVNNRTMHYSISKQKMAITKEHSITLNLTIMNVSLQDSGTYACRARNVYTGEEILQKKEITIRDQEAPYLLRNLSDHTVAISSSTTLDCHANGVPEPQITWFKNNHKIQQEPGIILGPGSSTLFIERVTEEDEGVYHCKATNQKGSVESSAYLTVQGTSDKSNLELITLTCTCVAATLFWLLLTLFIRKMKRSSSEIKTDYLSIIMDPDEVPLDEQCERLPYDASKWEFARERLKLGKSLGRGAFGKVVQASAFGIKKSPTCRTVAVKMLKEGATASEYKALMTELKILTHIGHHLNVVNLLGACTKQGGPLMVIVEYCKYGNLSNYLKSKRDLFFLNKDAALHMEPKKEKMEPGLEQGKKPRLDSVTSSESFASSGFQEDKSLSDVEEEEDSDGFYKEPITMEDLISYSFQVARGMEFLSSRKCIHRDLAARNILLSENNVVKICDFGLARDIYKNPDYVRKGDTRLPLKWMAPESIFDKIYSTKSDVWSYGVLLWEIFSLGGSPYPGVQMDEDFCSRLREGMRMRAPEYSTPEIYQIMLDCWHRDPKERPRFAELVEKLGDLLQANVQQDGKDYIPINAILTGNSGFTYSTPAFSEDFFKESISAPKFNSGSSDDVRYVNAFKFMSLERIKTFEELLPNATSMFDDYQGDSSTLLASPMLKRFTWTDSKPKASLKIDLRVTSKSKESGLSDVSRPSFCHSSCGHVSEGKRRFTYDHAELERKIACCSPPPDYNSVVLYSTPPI
# Chain of enzyme and uptake assay panel targets (Table 36) (Homo sapiens, UniProt P14780) (P14780 94-707): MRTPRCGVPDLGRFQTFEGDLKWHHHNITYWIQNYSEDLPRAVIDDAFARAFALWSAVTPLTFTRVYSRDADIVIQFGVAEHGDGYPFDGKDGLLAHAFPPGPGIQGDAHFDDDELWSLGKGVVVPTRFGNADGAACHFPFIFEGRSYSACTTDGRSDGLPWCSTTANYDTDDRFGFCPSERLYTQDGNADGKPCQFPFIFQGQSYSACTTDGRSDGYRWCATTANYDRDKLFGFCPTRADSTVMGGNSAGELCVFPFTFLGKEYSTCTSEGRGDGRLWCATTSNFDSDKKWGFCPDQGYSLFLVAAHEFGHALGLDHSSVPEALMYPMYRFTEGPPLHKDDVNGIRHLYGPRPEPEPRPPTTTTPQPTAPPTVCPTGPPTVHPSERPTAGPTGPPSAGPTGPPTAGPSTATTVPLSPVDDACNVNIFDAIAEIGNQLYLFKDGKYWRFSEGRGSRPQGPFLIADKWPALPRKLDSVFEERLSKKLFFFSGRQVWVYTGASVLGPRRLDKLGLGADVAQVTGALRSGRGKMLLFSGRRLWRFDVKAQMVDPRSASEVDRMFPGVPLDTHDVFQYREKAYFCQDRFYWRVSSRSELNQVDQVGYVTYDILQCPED
smiles,measurement,setting,value
[2H]C([2H])([2H])C(O)(c1nc2ccc(Cl)cc2cc1N)C([2H])([2H])[2H] [Compound I-1],% inhibition of Control Values 1st,[1],−4.1%
same,% inhibition of Control Values 2nd,[1],−5.7%
same,% inhibition of Control Values Mean,[1],−4.9%
same,% inhibition of Control Values 1st,[2],23.8%
same,% inhibition of Control Values 2nd,[2],26.2%
same,% inhibition of Control Values Mean,[2],25.0%
same,% inhibition of Control Values 1st,[3],0.3%
same,% inhibition of Control Values 2nd,[3],3.0%
same,% inhibition of Control Values Mean,[3],1.7%
same,% inhibition of Control Values 1st,[4],−8.6%
same,% inhibition of Control Values 2nd,[4],−0.3%
same,% inhibition of Control Values Mean,[4],−4.5%
same,% inhibition of Control Values 1st,[5],1.2%
same,% inhibition of Control Values 2nd,[5],−5.1%
same,% inhibition of Control Values Mean,[5],−1.9%
same,% inhibition of Control Values 1st,[6],2.8%
same,% inhibition of Control Values 2nd,[6],−2.0%
same,% inhibition of Control Values Mean,[6],0.4%
same,% inhibition of Control Values 1st,[7],16.6%
same,% inhibition of Control Values 2nd,[7],4.8%
same,% inhibition of Control Values Mean,[7],10.7%
same,% inhibition of Control Values 1st,[8],−3.1%
same,% inhibition of Control Values 2nd,[8],−3.7%
same,% inhibition of Control Values Mean,[8],−3.4%
same,% inhibition of Control Values 1st,[9],17.1%
same,% inhibition of Control Values 2nd,[9],−24.5%
same,% inhibition of Control Values Mean,[9],−3.7%
same,% inhibition of Control Values 1st,[10],4.5%
same,% inhibition of Control Values 2nd,[10],4.4%
same,% inhibition of Control Values Mean,[10],4.4%
same,% inhibition of Control Values 1st,[11],−2.0%
same,% inhibition of Control Values 2nd,[11],2.5%
same,% inhibition of Control Values Mean,[11],0.2%
same,% inhibition of Control Values 1st,[12],15.9%
same,% inhibition of Control Values 2nd,[12],16.9%
same,% inhibition of Control Values Mean,[12],16.4%
same,% inhibition of Control Values 1st,[13],0.9%
same,% inhibition of Control Values 2nd,[13],−4.5%
same,% inhibition of Control Values Mean,[13],−1.8%
same,% inhibition of Control Values 1st,[14],−15.5%
same,% inhibition of Control Values 2nd,[14],−18.8%
same,% inhibition of Control Values Mean,[14],−17.2%
same,% inhibition of Control Values 1st,[15],−17.7%
same,% inhibition of Control Values 2nd,[15],−35.7%
same,% inhibition of Control Values Mean,[15],−26.7%
same,% inhibition of Control Values 1st,[16],5.8%
same,% inhibition of Control Values 2nd,[16],14.7%
same,% inhibition of Control Values Mean,[16],10.3%
same,% inhibition of Control Values 1st,[17],−15.1%
same,% inhibition of Control Values 2nd,[17],−7.9%
same,% inhibition of Control Values Mean,[17],−11.5%
same,% inhibition of Control Values 1st,[18],127.6%
same,% inhibition of Control Values 2nd,[18],131.0%
same,% inhibition of Control Values Mean,[18],129.3%
